Data published in patent publication US20250152592A1, “PHARMACEUTICAL COMPOSITION COMPRISING ALLOPURINOL, FEBUXOSTAT OR PHARMACEUTICALLY ACCEPTABLE SALT THEREOF FOR PREVENTION OR TREATMENT OF CHRONIC KIDNEY DISEASE IN SUBJECT HAVING HIGH SERUM URIC ACID CONCENTRATION” (Indream Healthcare Inc., priority 2022, published 2025).

Experiments:
[1] = system: patients with gout and a history of major cardiovascular diseases; experiment: odds ratio for risk of developing or worsening chronic kidney disease, serum uric acid at or above 6 vs below 6; type: in vivo, human
Procedure: In order to confirm the effect of allopurinol and febuxostat on the kidney disease, the data obtained in the clinical trial described above was analyzed.
The patients were classified into patient groups by specific biomarkers such as blood glucose level, blood pressure, and kidney disease steps, and then risks of developing or worsening the kidney disease in patients who had the serum uric acid concentration decreased to less than 6 and patients who maintained the serum uric acid concentration at or above 6 were confirmed using odds ratios (OR) after the administration of allopurinol and febuxostat, and the results are shown in Tables 1 to 3.
Risks of developing the kidney disease of the patients who had the serum uric acid concentration decreased to less than 6 and the patients who maintained the serum uric acid concentration at or above 6 by administering allopurinol were confirmed using the odds ratios, and the results are shown in the following Table 1.
(§1) In Table 6, the risks of developing the kidney disease of the patients who had the serum uric acid concentration decreased to less than 6 and the patients who maintained the serum uric acid concentration at or above 6 by administering febuxostat are confirmed using the odds ratios.
as §1, with “12,” for “6,”, “were” for “by administering febuxostat are”, “ratio, in both patient groups to which allopurinol or febuxostat was administered.” for “ratios.”

[2] = system: patients with gout and a history of major cardiovascular diseases; experiment: clinical trial febuxostat vs allopurinol: serum uric acid, gout flare, treatment discontinuation; type: in vivo, human; conditions: for rate of gout flare: overall, during the trial
Procedure: In order to evaluate non-inferiority of febuxostat to allopurinol related to cardiovascular risk, a clinical trial was designed and proceeded.
A multicenter, randomized, double-blind non-inferiority trial was performed. The details of the clinical trial design have been published previously. An independent data and safety monitoring committee with access to unblinded data monitored the clinical trial. The statistical analysis for the data and the safety monitoring committee was performed by an independent statistical group (WebbWrites).
The patients were regarded as having a history of major cardiovascular diseases, if they had myocardial infarction, hospitalization for unstable angina, stroke, hospitalization for transient ischemic attack, peripheral vascular disease, or diabetes mellitus symptoms. All participants provided a prior informed consent form.
The patients were randomly assigned so that they received febuxostat or allopurinol administered once a day in a double-blind manner. The randomization was stratified according to the estimated creatinine clearance at baseline (patient group having an estimated creatinine clearance ≥60 ml per minute vs patient group having an estimated creatinine clearance ≥30 and <60 ml per minute).
The dose of allopurinol was modified according to a kidney function. The patients with the estimated creatinine clearance 60 ml or more per minute i) initially received allopurinol at a dose of 300 mg once a day, and the dose was increased in 100 mg increments monthly until the patient had the serum uric acid concentration of less than 6.0 mg per deciliter or the dosage of allopurinol was 600 mg once a day. The patient having the estimated creatinine clearance of 30 ml or more and less than 60 ml per minute initially received 200 mg of allopurinol, and then the dose was increased in 100 mg increments until the patient either had the serum uric acid concentration of less than 6.0 mg per deciliter or was receiving the allopurinol dose of 400 mg once daily.
The dose of febuxostat was not modified according to the kidney function. The patients who were randomly assigned to receive febuxostat initially received 40 mg once a daily, and continued to receive the same dosage if the serum uric acid concentration was less than 6.0 mg per deciliter after 2 weeks of the treatment. If the serum uric acid concentration was higher than 6.0 mg per deciliter at 2nd week visit, the dose of febuxostat was increased to 80 mg once daily for the remainder of the trial.
During the period, the administration of a double-blind and double-dummy trial medications was guided by an interactive voice-response system which was a procedure to prevent unblinding for the patients whose dose was not adjusted. After completing dose adjustment, the urate level was concealed from the investigators, and the treatment was managed throughout the trial using the interactive voice-response system.
Outpatient visits were conducted according to the following schedule: during screening and randomization, and at 2, 4, 6, 8, 10, 12, and 24 weeks after the randomization, and every 6 months during the subsequent years of the trial. The patients with reduced kidney function or, the patients aged 65 years or older at randomization were visited at 9 and 15 months for monitoring the serum chemical profile. If the patient agreed to be monitored, but would not return for study visit, telephone contact was made, but such method was not preferred or recommended.

[3] = cited from earlier work; for acute renal failure reported more often: post-marketing study, Arthritis Research & Therapy volume 21, Article number: 229 (2019)
[4] = Table 12, both administration groups

Oc1ncnc2[nH]ncc12 [allopurinol]
prevention or treatment of chronic kidney disease when serum uric acid maintained below 6 ([1]; Table 12, blood glucose ≥126 mg/dl, DBP ≤80 mm/Hg, or SBP ≤130 mm/Hg): effectively prevented or treated
prevention or treatment of chronic kidney disease when serum uric acid maintained below 6 [1, 4]: effectively prevented or treated
risk of developing or worsening the chronic kidney disease, serum uric acid at or above 6 vs below 6 (odds ratio) ([1]; allopurinol, blood glucose level of 126 mg/dl or less): about 1.34 times
risk of developing or worsening the chronic kidney disease, serum uric acid at or above 6 vs below 6 (odds ratio) ([1]; allopurinol, blood glucose level of 126 mg/dl or more): about 2.53 times
risk of developing or worsening the kidney disease, serum uric acid at or above 6 vs below 6 (odds ratio) ([1]; allopurinol, diastolic blood pressure of 80 mm/Hg or higher): about 1.35 times
risk of developing or worsening the chronic kidney disease, serum uric acid at or above 6 vs below 6 (odds ratio) ([1]; allopurinol, diastolic blood pressure of 80 mm/Hg or lower): about 2.04 times
risk of developing or worsening the chronic kidney disease, serum uric acid at 6 or more vs below 6 (odds ratio) ([1]; allopurinol, having congestive cardiac failure): about 1.21 times
risk of developing or worsening the chronic kidney disease, serum uric acid at 6 or more vs below 6 (odds ratio) ([1]; allopurinol, no congestive cardiac failure): about 1.84 times
risk of developing or worsening the chronic kidney disease, serum uric acid at or above 6 vs below 6 (odds ratio) ([1]; allopurinol, systolic blood pressure of 130 mm/Hg or higher): about 1.54 times
risk of developing or worsening the chronic kidney disease, serum uric acid at or above 6 vs below 6 (odds ratio) ([1]; allopurinol, systolic blood pressure of 130 mm/Hg or lower): about 1.93 times
rate of gout flare [2]: 0.63 per patient-year
drug-induced nephrotoxicity ([3]; Am Fam Physician. 2008 September): causes acute interstitial nephritis
effect on kidney function ([3]; Kaohsiung J Med Sci. 2005 May;21(5):228-32): worsens kidney function
acute renal failure reported more often [3]: 3.3 times

Cc1nc(-c2ccc(OCC(C)C)c(C#N)c2)sc1C(=O)O [febuxostat]
prevention or treatment of chronic kidney disease when serum uric acid maintained below 6 ([1]; Table 6, blood glucose ≥126 mg/dl, DBP ≤80 mm/Hg, or SBP ≤130 mm/Hg): effectively prevented or treated
prevention or treatment of chronic kidney disease when serum uric acid maintained below 6 ([1]; Table 6, serum uric acid of 8 mg/dL or more or gout lasting for 10 years or more): effectively prevented or treated
prevention or treatment of chronic kidney disease when serum uric acid maintained below 6 [1, 4]: effectively prevented or treated
proportion of patients with maintenance of serum uric acid concentration at less than 6.0 mg per deciliter ([2]; after 2nd week, at most times, febuxostat group vs allopurinol group): a higher proportion of the patients in the febuxostat group
proportion of patients with serum uric acid concentration of less than 6.0 mg per deciliter ([2]; at the 2nd week, febuxostat group vs allopurinol group): higher in the febuxostat group than in the allopurinol group
proportion of patients with serum uric acid concentration of less than 5.0 mg per deciliter ([2]; entire trial, febuxostat group vs allopurinol group): a larger proportion of the patients in the febuxostat group than in the allopurinol group
rate of gout flare [2]: 0.68 per patient-year
acute renal failure reported more often [3]: 5.7 times
